How the values were obtained:
sGC α1/β1 heterodimer = biological target: T1, sGC α1/β1 heterodimer (Homo sapiens, UniProt Q02108+Q02153); assay: Cell-Based sGC Functional Assay (CASA Assay), cGMP by HTRF in CHO-K1/sGC cells; conditions: for Emax: CHO-K1, percent activation relative to maximum cGMP production of Compound A (= 100%), read-out: % Act.; for EC50: cGMP production, 1 hr at 37° C., 4P fit, presence or absence of 1 μM DETA-NO not given, read-out: IP (nM) (inflection point)
T1 construct: expressed in transfected cells; host or cells: CHO-K1 (clone #7, CHO-K1/sGC)
T1 sequence (Q02108 1-690): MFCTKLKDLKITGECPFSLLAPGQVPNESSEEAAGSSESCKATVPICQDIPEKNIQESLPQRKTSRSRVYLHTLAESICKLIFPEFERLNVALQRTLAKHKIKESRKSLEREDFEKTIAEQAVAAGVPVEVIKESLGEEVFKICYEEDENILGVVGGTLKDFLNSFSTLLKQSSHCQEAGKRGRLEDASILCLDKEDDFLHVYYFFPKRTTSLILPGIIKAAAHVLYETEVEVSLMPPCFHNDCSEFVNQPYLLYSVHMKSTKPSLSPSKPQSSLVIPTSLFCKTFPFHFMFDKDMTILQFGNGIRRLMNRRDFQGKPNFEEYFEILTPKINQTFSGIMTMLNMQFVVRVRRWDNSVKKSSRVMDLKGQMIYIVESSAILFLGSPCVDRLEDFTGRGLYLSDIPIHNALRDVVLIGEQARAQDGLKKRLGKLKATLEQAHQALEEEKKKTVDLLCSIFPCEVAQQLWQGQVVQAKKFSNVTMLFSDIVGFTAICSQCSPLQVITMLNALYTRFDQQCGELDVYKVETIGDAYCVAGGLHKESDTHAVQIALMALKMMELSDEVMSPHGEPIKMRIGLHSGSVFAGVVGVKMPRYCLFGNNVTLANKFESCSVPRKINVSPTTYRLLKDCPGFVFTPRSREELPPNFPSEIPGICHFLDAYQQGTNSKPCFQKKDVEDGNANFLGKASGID
T1 sequence (Q02153 1-619): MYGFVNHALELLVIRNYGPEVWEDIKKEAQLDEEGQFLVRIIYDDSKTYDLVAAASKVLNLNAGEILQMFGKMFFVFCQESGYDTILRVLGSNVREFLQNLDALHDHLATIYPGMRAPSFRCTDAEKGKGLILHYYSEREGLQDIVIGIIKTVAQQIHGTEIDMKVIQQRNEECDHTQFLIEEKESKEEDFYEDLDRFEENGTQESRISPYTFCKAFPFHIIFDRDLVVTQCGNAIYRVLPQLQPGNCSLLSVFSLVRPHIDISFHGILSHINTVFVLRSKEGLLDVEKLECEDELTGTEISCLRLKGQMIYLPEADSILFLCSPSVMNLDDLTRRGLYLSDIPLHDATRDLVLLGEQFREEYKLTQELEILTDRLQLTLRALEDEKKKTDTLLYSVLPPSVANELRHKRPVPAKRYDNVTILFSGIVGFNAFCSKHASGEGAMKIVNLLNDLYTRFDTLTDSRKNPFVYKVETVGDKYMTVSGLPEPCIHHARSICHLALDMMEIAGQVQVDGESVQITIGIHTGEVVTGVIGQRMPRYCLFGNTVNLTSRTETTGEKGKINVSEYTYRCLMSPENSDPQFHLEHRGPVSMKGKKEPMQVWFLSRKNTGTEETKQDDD
In short: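 CHO-K1 cells stably expressing human sGC α1/β1, in EBSS buffer with 5 mM MgCl2, 10 mM HEPES, 0.05% BSA and 0.5 mM IBMX, incubated with compound (2.5% DMSO) ± 1 μM DETA-NO, 1 h, 37 °C. Intracellular cGMP read by HTRF; activity as % of reference activator maximum, IP from 4-parameter fit.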

[1] = system: Spontaneously hypertensive rats (SHR); assay: Acute Efficacy in Spontaneously Hypertensive Rats (SHR), telemetry blood pressure; format: in vivo, rat; conditions: SHR male
In short: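 Male SHR with aortic telemetry, conscious and freely moving, recovered 14 days post-surgery. Single oral gavage; vehicle 10% transcutol/20% Cremophor/70% water dosed the day before as baseline. Hourly blood pressure averages minus baseline; maximum peak systolic decrease reported at a stated oral dose (mpk).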

Q: Which results are given for CC1(c2ccc(F)cc2)C(=O)Nc2nc(-c3cn4ccnc4c(Cc4ccc(F)cc4)n3)nc(O)c21 (stereo not drawn) [Example 81A, 2-(8-(4-fluorobenzyl)imidazo[1,2-a]pyrazin-6-yl)-5-(4-fluorophenyl)-4-hydroxy-5-methyl-5H-pyrrolo[2,3-d]pyrimidin-6(7H)-one]?
A: Emax (sGC α1/β1 heterodimer): 104%; EC50 (sGC α1/β1 heterodimer): 144 nM; Cat. (maximum peak decrease of systolic blood pressure (SBP) in SHR) ([1]; single oral dose 1.0 mpk P.O.): B (Category B=SBP in SHRs 20-40 mmHg)

Q: How did the Emax (sGC α1/β1 heterodimer) turn out when CCCCc1nc(-c2ncc3c(n2)NC(=O)C3(C)c2ccc(F)cn2)cn2ccnc12 (stereo not drawn) [Example 82B, 2-(8-butylimidazo[1,2-a]pyrazin-6-yl)-5-(5-fluoropyridin-2-yl)-5-methyl-5H-pyrrolo[2,3-d]pyrimidin-6(7H)-one] was run?
A: 63%

Q: And the EC50 (sGC α1/β1 heterodimer)?
A: 37 nM

Q: And the “Cat. (maximum peak decrease of systolic blood pressure (SBP) in SHR)” value ([1]; single oral dose 1.0 mpk P.O.)?
A: C (Category C=SBP in SHRs>40 mmHg)

Q: Which results are given for CC1(c2ccc(F)cc2)C(=O)Nc2nc(-c3cn4ccnc4c(CCC(F)(F)C(F)(F)F)n3)nc(C(N)=O)c21 (stereo not drawn) [Example 86A, 5-(4-Fluorophenyl)-5-methyl-6-oxo-2-(8-(3,3,4,4,4-pentafluorobutyl)imidazo[1,2-a]pyrazin-6-yl)-6,7-dihydro-5H-pyrrolo[2,3-d]pyrimidine-4-carboxamide]?
A: Emax (sGC α1/β1 heterodimer): 109%; EC50 (sGC α1/β1 heterodimer): 57 nM; Cat. (maximum peak decrease of systolic blood pressure (SBP) in SHR) ([1]; single oral dose 1.0 mpk P.O.): B (Category B=SBP in SHRs 20-40 mmHg)

Q: How did the Emax (sGC α1/β1 heterodimer) turn out when Cc1cn2cc(-c3ncc4c(n3)NC(=O)C4(C)c3ccc(F)cn3)nc(CCCC(F)(F)F)c2n1 (stereo not drawn) [Example 90B, 5-(5-Fluoropyridin-2-yl)-5-methyl-2-(2-methyl-8-(4,4,4-trifluorobutyl)imidazo[1,2-a]pyrazin-6-yl)-5H-pyrrolo[2,3-d]pyrimidin-6(7H)-one] was run?
A: 191%

Q: What about the EC50 (sGC α1/β1 heterodimer) of the same compound?
A: 589 nM

Q: And the “Cat. (maximum peak decrease of systolic blood pressure (SBP) in SHR)” value ([1]; single oral dose 0.3 mpk P.O.)?
A: B (Category B=SBP in SHRs 20-40 mmHg)

Q: Which Emax (sGC α1/β1 heterodimer) does the source give for CC1(c2ccc(F)cc2)C(=O)Nc2nc(-c3cn4ccnc4c(OCCC4CC4)n3)nc(O)c21 (stereo not drawn) [Example 93A, 2-(8-(2-Cyclopropylethoxy)imidazo[1,2-a]pyrazin-6-yl)-5-(4-fluorophenyl)-4-hydroxy-5-methyl-5H-pyrrolo[2,3-d]pyrimidin-6(7H)-one] here?
A: 86%

Q: What about the EC50 (sGC α1/β1 heterodimer) of the same compound?
A: 163 nM

Q: And the “Cat. (maximum peak decrease of systolic blood pressure (SBP) in SHR)” value ([1]; single oral dose 1.0 mpk P.O.)?
A: A (Category A=SBP in SHRs<20 mmHg)
